Read-outs that look alike come from different tables or passages of the source.
Tests used:
Assay type in all cases: in vivo
[1] = tested on: mustard beetle larvae (Phaedon cochleariae); assay: Phaedon cochleariae - spray test; details: foliar, 144 h, read-out: Efficacy in % after 6d (mortality)
Excerpt: (§1) The expected activity for a given combination of two active compounds can be calculated according to S. R. Colby, Weeds 15 (1967), 20-22 as follows: • If • X is the efficacy expressed in % mortality of the untreated control for test compound A at a concentration of m ppm respectively m g/ha, • Y is the efficacy expressed in % mortality of the untreated control for test compound B at a concentration of n ppm respectively n g/ha, • E is the efficacy expressed in % mortality of the untreated control using the mixture of A and B at m and n ppm respectively m and n g/ha,
(§2) If the observed insecticidal efficacy of the combination is higher than the one calculated as “E”, then the combination of the two compounds is more than additive, i.e., there is a synergistic effect.
To produce a suitable preparation of active compound, 1 part by weight of active compound is mixed with the stated amount of solvent and emulsifier, and the concentrate is diluted with emulsifier-containing water to the desired concentration. To produce a suitable preparation of a spore suspension the spores are diluted with emulsifier-containing water to the desired concentration.
Chinese cabbage (Brassica pekinensis) leaf-disks are sprayed with a preparation of the active ingredient of the desired concentration. Once dry, the leaf disks are infested with mustard beetle larvae (Phaedon cochleariae).
After the specified period of time, mortality in % is determined. 100% means all beetle larvae have been killed and 0% means none of the beetle larvae have been killed. The mortality values determined thus are recalculated using the Colby-formula (see sheet 1).

[2] = tested on: green peach aphid (Myzus persicae); assay: Myzus persicae - spray test
Excerpt: as §1, §2
(§3) To produce a suitable preparation of active compound, 1 part by weight of active compound is mixed with the stated amount of solvent and emulsifier, and the concentrate is diluted with emulsifier-containing water to the desired concentration.
Chinese cabbage (Brassica pekinensis) leaf-disks infected with all instars of the green peach aphid (Myzus persicae) are sprayed with a preparation of the active ingredient of the desired concentration.
After the specified period of time, mortality in % is determined 100% means all aphids have been killed; 0% means none of the aphids have been killed. The mortality values determined thus are recalculated using the Colby-formula (see sheet 1).

[3] = tested on: larvae of the diamondback moth (Plutella xylostella); assay: Plutella xylostella - spray test; details: cabbage leaves
Excerpt: as §1, §2
as §3, with “concentration Ammonium salt and/or penetration enhancer in a dosage of 1000 ppm are added to the desired concentration if necessary. […]” for “concentration.”
After the specified period of time, the mortality in % is determined. […] The mortality values determined thus are recalculated using the Colby-formula (see sheet 1).

Structure (SMILES): Cc1cc(C(F)(C(F)(F)F)C(F)(F)F)ccc1NC(=O)c1cccc(Cl)c1C(=O)NC(C)(C)C#N [(I-5)]
- mortality at 2.5 g/ha ([1]; 2.5 g ai/ha, Chinese cabbage leaf disks, 6 d): 0%
- mortality at 4 g/ha ([1]; 4 g ai/ha, Chinese cabbage leaf disks, 6 d): 0%
- mortality at 12 g/ha ([1]; 12 g ai/ha, Chinese cabbage leaf disks, 6 d): 0%
- mortality at 1.25 g/ha ([2]; Myzus persicae, foliar, 144 h, 1.25 g ai/ha, Chinese cabbage leaf disks, 6 d, read-out: Efficacy in % after 6d (mortality)): 0%
- mortality at 1.5 g/ha ([2]; Myzus persicae, foliar, 144 h, 1.5 g ai/ha, Chinese cabbage leaf disks, 6 d, read-out: Efficacy in % after 6d (mortality)): 0%
- mortality at 15 g/ha ([2]; Myzus persicae, foliar, 144 h, 15 g ai/ha, Chinese cabbage leaf disks, 6 d, read-out: Efficacy in % after 6d (mortality)): 0%

Structure (SMILES): O=C(NCCc1ncc(C(F)(F)F)cc1Cl)c1ccccc1C(F)(F)F [Fluopyram, fluopyram]
- mortality at 100 g/ha ([1]; in Brassica rapa): 0%
- mortality at 50 ppm ([3]; Plutella xylostella, 72 h, 50 ppm, 3 d, read-out: Efficacy in % after 3d (mortality)): 0%

Structure (SMILES): O=C1C=C(N(Cc2ccc(Cl)nc2)CC(F)F)CO1 [Flupyradifurone]
- Efficacy in % after 6d (mortality) ([2]; 0.5 g ai/ha, Chinese cabbage leaf disks, 6 d): 0%
- Efficacy in % after 2d (mortality) ([3]; 1.25 ppm, 2 d): 0%

Structure (SMILES): CC(c1ccc(C(F)(F)F)nc1)S(C)(=O)=NC#N (stereo not shown) [Sulfoxaflor (II-13), Sulfoxaflor]
- mortality at 0.16 g/ha ([1]; in Brassica rapa): 0%
- mortality at 12 g/ha ([1]; in Brassica rapa): 0%
- mortality at 0.3 g/ha ([2]; Myzus persicae, in Brassica rapa, foliar, 144 h, read-out: Efficacy in % after 6d (mortality)): 70%

Reference: patent publication US9549551B2, “Active compound combinations having insecticidal properties” (priority 2013, dated 2017)
